Results on five molecules are retold here after patent EP2158208B1, “PROCESS FOR PREPARING AN A2A-ADENOSINE RECEPTOR AGONIST AND ITS POLYMORPHS” (Gilead Sciences, Inc., priority 2007, dated 2008).

In series [1] the target is A2A-adenosine receptor (Homo sapiens, UniProt P29274). The settings on record: disclosed in U.S. Patent No. 6,403,567; cited from earlier work.
For series [2] the following is noted: in humans; cited from earlier work.
Series [3] can be described thus: stability of polymorphs under relative humidity stress / atmospheric moisture. The class given is physicochemical. The settings on record: for stability under relative humidity stress conditions: up to melting point, monohydrate. Here is the method: Moisture sorption/desorption data were collected on a VTI SGA-100 Vapor Sorption Analyzer. Sorption and desorption data were collected over a range of 5% to 95% relative humidity […] at 10% RH intervals under a nitrogen purge. Sodium chloride (NaCl) and polyvinylpyrrolidone (PVP) were used as the calibration standards. Equilibrium criteria used for analysis were less than 0.0100% weight change in 5 minutes, with a maximum equilibration time of 180 minutes if the weight criterion was not met. The plotted data have not been corrected for the initial moisture content.

Series [4] is described as follows: stability of polymorphs with temperature (thermal analyses). The settings on record: for relative stability among the polymorphs: at ambient temperatures, monohydrate. The class given is physicochemical. Here is the method:
Thermogravimetric (TG) analyses were carried out on a TA Instruments 2050 or 2950 thermogravimetric analyzer. The calibration standards were nickel and Alumel™. Samples were placed in an aluminum sample pan, inserted into the TG furnace, and accurately weighed. The samples were heated in nitrogen at a rate of 10°C/min to either 300 or 350° C. Unless stated otherwise, samples weights were equilibrated at 25°C in the TGA furnace prior to analysis.
Differential scanning calorimetry (DSC) analyses were carried out on a TA Instruments differential scanning calorimeter 2920. Accurately weighed samples were placed in either crimped pans or hermetically sealed pans that contained a pinhole to allow for pressure release. Each sample was heated under nitrogen at a rate of 10°C/min to either 300 or 350°C. Indium metal was used as the calibration standard. Temperatures were reported at the transition maxima.

A2A-adenosine receptor, sequence (P29274 whole entry): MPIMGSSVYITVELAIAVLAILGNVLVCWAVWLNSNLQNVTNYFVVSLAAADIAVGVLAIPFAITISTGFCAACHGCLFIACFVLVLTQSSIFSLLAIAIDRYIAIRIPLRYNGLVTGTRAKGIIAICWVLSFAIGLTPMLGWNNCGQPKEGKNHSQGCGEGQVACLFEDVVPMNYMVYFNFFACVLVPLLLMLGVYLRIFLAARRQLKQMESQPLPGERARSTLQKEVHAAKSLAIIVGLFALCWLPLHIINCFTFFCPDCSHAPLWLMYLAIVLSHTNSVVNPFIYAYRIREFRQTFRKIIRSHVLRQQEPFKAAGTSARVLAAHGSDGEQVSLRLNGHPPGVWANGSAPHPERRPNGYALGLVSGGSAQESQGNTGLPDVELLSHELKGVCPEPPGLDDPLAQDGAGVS

As to `CNC(=O)c1cnn(-c2nc(N)c3ncn([C@@H]4O[C@H](CO)[C@@H](O)[C@H]4O)c3n2)c1` [(1-{9-[(4S,2R,3R,5R)-3,4-dihydroxy-5-(hydroxymethyl)oxolan-2-yl]-6-aminopurin-2-yl}pyrazol-4-yl)-N-methylcarboxamide], the “selectivity as A2A-adenosine receptor agonist” value in series [1] is recorded as “highly selective”.

Turning to `Nc1ncnc2c1ncn2[C@@H]1O[C@H](CO)[C@@H](O)[C@H]1O` [Adenosine], the half life entry in series [2] was “less than 10 seconds”. Regarding `CNC(=O)c1cnn(-c2nc(N)c3ncn([C@@H]4O[C@H](CO)[C@@H](O)[C@H]4O)c3n2)c1` [Amorphous Material, (1-{9-[(4S,2R,3R,5R)-3,4-dihydroxy-5-(hydroxymethyl)oxolan-2-yl]-6-aminopurin-2-yl}pyrazol-4-yl)-N-methylcarboxamide], in series [3] (atmospheric moisture), the “stability in the presence of atmospheric moisture” value is listed as “unstable in the presence of atmospheric moisture”.

Regarding `CNC(=O)c1cnn(-c2nc(N)c3ncn([C@@H]4O[C@H](CO)[C@@H](O)[C@H]4O)c3n2)c1.O` [Form A, (1-{9-[(4S,2R,3R,5R)-3,4-dihydroxy-5-(hydroxymethyl)oxolan-2-yl]-6-aminopurin-2-yl}pyrazol-4-yl)-N-methylcarboxamide monohydrate], the “stability under relative humidity stress conditions” value was “stable under relative humidity stress conditions, up to its melting point” in series [3] (listed as monohydrate) and “stable under relative humidity stress conditions up to its melting point” in series [3]. Besides, the entries for the “relative stability among the polymorphs” value in series [4] (listed as monohydrate) and in series [4] were “most stable” and “most stable of the various polymorphs at ambient temperatures”, respectively.

For `CNC(=O)c1cnn(-c2nc(N)c3ncn([C@@H]4O[C@H](CO)[C@@H](O)[C@H]4O)c3n2)c1` [Form C, (1-{9-[(4S,2R,3R,5R)-3,4-dihydroxy-5-(hydroxymethyl)oxolan-2-yl]-6-aminopurin-2-yl}pyrazol-4-yl)-N-methylcarboxamide], the “stability at elevated temperatures” value in series [4] (elevated temperatures) is “desolvates to an unstable form”.
